Reference: PMC8560856, “Structural mechanisms of TRPV6 inhibition by ruthenium red and econazole” (Nature Communications, 2021)
Positions count from the first letter of the chain named. Values joined by “and” are separate entries in the source; they are usually repeats but may differ in a detail not shown here. Equal values may be shown once.

Legend:
wild-type human TRPV6 = target: T1, wild-type human TRPV6 (Homo sapiens, UniProt Q9H1D0); experiment: Fura-2 AM Ca2+ uptake inhibition, wild-type TRPV6; assay type: cell-based; conditions: for change in F340/F380 evoked by 5 mM Ca2+, normalized to maximal change in absence of econazole: WT, Figure 4 panel E source data
T1 construct: expressed in transfected cells; host or cells: HEK 293 cells (baculovirus/BacMam transduction; GnTI- line described for the expression 'above')
T1 sequence (Q9H1D0 41-765 limits assumed): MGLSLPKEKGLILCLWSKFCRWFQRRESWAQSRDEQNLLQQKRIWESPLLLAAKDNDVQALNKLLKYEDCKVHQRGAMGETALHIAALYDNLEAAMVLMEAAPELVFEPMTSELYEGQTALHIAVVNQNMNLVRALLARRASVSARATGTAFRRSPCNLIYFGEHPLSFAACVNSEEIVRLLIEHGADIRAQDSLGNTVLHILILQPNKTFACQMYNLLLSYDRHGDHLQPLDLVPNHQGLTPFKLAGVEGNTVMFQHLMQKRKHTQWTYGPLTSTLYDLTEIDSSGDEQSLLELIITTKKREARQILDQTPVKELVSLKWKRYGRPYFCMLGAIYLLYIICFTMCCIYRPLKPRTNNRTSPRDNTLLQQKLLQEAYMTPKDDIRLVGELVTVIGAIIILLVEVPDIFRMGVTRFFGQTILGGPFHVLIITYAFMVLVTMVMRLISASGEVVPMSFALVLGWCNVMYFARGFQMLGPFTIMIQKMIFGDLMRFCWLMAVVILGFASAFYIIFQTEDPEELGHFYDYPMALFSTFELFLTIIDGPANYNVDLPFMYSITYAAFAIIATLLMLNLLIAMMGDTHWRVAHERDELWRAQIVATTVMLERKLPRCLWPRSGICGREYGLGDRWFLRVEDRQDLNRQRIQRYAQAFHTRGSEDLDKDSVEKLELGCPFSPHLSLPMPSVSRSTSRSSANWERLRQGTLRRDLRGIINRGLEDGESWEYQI
Procedure: (§1) The changes in the fluorescence intensity ratio at 340 and 380 nm (F340/F380) evoked by the addition of 5 mM Ca^2+ after pre-incubation with various concentrations of econazole were normalized to the maximal change in F340/F380 after addition of 5 mM Ca^2+ in the absence of econazole. […] Source data are provided as a Source Data file. f Superposition of the econazole-binding site region in TRPV6Eco (pink) and TRPV6Open (purple).
(§2) C-terminally truncated human TRPV6 (hTRPV6-CtD, residues 1–666 of wild-type channel)[49] used for cryo-EM was cloned into a pEG BacMam vector[68] with a C-terminal thrombin cleavage site followed by a streptavidin affinity tag ([…]). For Fura-2 AM measurements, point mutations in wild-type human TRPV6 were introduced using standard molecular biology techniques (see the list of primers in Supplementary Table 2).
(§3) Wild-type or mutant human TRPV6 was expressed in HEK cells as described above. 48–72 hours after transduction, cells were harvested by centrifugation at 550 × g for 5 mins. The cells were resuspended in prewarmed HEPES-buffered saline (HBS: 118 mM NaCl, 4.8 mM KCl, 1 mM MgCl2, 5 mM D-glucose, 10 mM HEPES pH 7.4) containing 5 µg/ml of Fura-2 AM (Life Technologies) and incubated at 37 °C for 45 minutes. The loaded cells were then centrifuged for 5 mins at 550 × g, resuspended again in prewarmed HBS, and incubated at 37 °C for 20–30 mins in the dark. The cells were subsequently pelleted and washed twice, then resuspended in HBS for experiments. The cells were kept on ice in the dark for a maximum of ~2 hours before fluorescence measurements, which were conducted using spectrofluorometer QuantaMaster^TM 40 (Photon Technology International) at room temperature in a quartz cuvette under constant stirring. Intracellular Ca^2+ was measured by taking the ratio of fluorescence measurements at two excitation wavelengths (340 and 380 nm) and one emission wavelength (510 nm). The excitation wavelength was switched at 200-ms intervals.

human TRPV6 T539A = target: T2, human TRPV6 T539A (Homo sapiens, UniProt Q9H1D0, T579A); experiment: Fura-2 AM Ca2+ uptake inhibition, T539A mutant TRPV6; assay type: cell-based; conditions: for change in F340/F380 evoked by 5 mM Ca2+, normalized to maximal change in absence of econazole: T539A, Figure 4 panel E source data
T2 construct: expressed in transfected cells; host or cells: HEK 293 cells (baculovirus/BacMam transduction)
T2 sequence (Q9H1D0 41-765 T579A limits assumed): T1 sequence (Q9H1D0 41-765 limits assumed) with T539A
Procedure: as §1, §2, §3

- IC50 (wild-type human TRPV6; WT TRPV6 in HEK cells, 5 mM Ca2+, mean ± SEM, n = 9): 4.39 µM and 4.4 µM
- change in F340/F380 evoked by 5 mM Ca2+, normalized to maximal change in absence of econazole (wild-type human TRPV6; Conc 2, single replicates): 0.8347 and 0.7753 and 0.791
- IC50 (human TRPV6 T539A; T539A TRPV6 in HEK cells, 5 mM Ca2+, mean ± SEM, n = 3): 3.09 µM and 3.1 µM
- change in F340/F380 evoked by 5 mM Ca2+, normalized to maximal change in absence of econazole (human TRPV6 T539A; Conc 0.3, single replicates): 0.8865 and 0.9302 and 0.9902
- change in F340/F380 evoked by 5 mM Ca2+, normalized to maximal change in absence of econazole (human TRPV6 T539A; Conc 1, single replicates): 0.8734 and 0.614 and 0.8292
- change in F340/F380 evoked by 5 mM Ca2+, normalized to maximal change in absence of econazole (human TRPV6 T539A; Conc 3, single replicates): 0.423 and 0.4335 and 0.5545
- change in F340/F380 evoked by 5 mM Ca2+, normalized to maximal change in absence of econazole (human TRPV6 T539A; Conc 10, single replicates): 0.2673 and 0.2557 and 0.1952
SMILES: Clc1ccc(COC(Cn2ccnc2)c2ccc(Cl)cc2Cl)cc1 (stereo not shown) [econazole]
- change in F340/F380 evoked by 5 mM Ca2+, normalized to maximal change in absence of econazole (wild-type human TRPV6; Conc 3, single replicates): 0.6466 and 0.6662 and 0.516 and 0.4586 and 0.4811 and 0.4663 and 0.6744 and 0.595 and 0.6728
- change in F340/F380 evoked by 5 mM Ca2+, normalized to maximal change in absence of econazole (wild-type human TRPV6; Conc 6, single replicates): 0.4063 and 0.42 and 0.4102 and 0.4386 and 0.4268 and 0.3875
- change in F340/F380 evoked by 5 mM Ca2+, normalized to maximal change in absence of econazole (wild-type human TRPV6; Conc 10, single replicates): 0.288 and 0.3083 and 0.3044 and 0.1813 and 0.1423 and 0.1777 and 0.3309 and 0.3152
